Measurements taken from patent publication US6835748B2, “Treatment of ocular disorders” (priority 1999, dated 2004).

Experiments:
Type in all cases: in vivo, rabbit
[1] = system: normotensive adult rabbits; assay: Pupil diameter measurement; settings: topical 1%, 2%, 5% solutions
Experimental: (§1) Male and female adult brown burgundy rabbits (2.6-4.4 kg) are used in this study. Animals are kept in individual cages under well-defined and standardized conditions (humidity and temperature controlled room, 13 h light/11 h dark cycle) with standard dry food and water ad libitum. All animals are accustomed to the procedure of IOP measurement but only those animals that have stable records are included in the study. All experiments are conducted in accordance with the ARVO resolution for the use of animals in ophthalmic and vision research and are approved by the Federal and Local Ethical and Agricultural Committees.
(§2) Solutions of a test drug are freshly prepared before each experiment by dissolution in sterile balanced salt solution (BSS) (Alcon Pharmaceuticals Ltd, Forth Worth, Tex., USA) at the required concentrations under sterile conditions. One 50-μL drop of the test solution is applied topically to the right eye whereas the contralateral eye receives the carrier BSS only.
Pupil diameter is measured horizontally in both eyes using a pupil gauge closely applied to the cornea under diffuse illumination conditions.

[2] = system: normotensive adult rabbits; assay: IOP measurement (TonoPen XL) after a single topical 50-μL drop in rabbits
Experimental: as §1, §2
IOP is measured with a TonoPen XL (Mentor, Norvel, Mass.), the device being calibrated daily according to the manufacturer's instructions. […] Corneas are anaesthetized by topical application of a 50-μL drop of 0.2% Novocaine prior to each IOP measurement.
Measurements are always initiated at the same time (8 a.m.), a sufficient recovery period of at least 7 days is provided for the animals between the experiments. Control readings are taken 10 minutes before instillation of the test drug to the right eye and of the vehicle to the left one. IOP is recorded at 1-hour intervals for the ensuing 8 hours. Baseline measurements are likewise performed hourly in all animals prior to treatment, for monitoring of diurnal rhythms. (9)
Data are analyzed according to the Mann-Whitney U-test. IOP values recorded before and after application of Rivastigmine or the drug vehicle are compared in the same eye, differences with a first order error of P<0.05 being considered as statistically significant.

[3] = system: normotensive adult rabbits; assay: Slit-lamp examination (local tolerability); settings: topical 1%, 2%, 5% solutions; before and 4 and 8 hours after administration
Experimental: as §1, §2
Slit-lamp biomicroscopy is performed by a trained ophthalmologist before drug administration and 4 and 8 hours thereafter. Eyes are controlled for conjunctival redness and discharge, for integrity of the corneal epithelium and for the absence or presence of flare (protein in the anterior chamber being an indication of blood aqueous barrier breakdown).

SMILES: CCN(C)C(=O)Oc1cccc(C(C)N(C)C)c1 (centres unmarked) [Rivastigmine]
- Pupil reaction in drug-treated eyes [1]: insignificant miotic pupil reaction
- Time of maximal mean decrease in IOP, treated eye ([2]; 1% solution): 5 h
- Duration of significant IOP-lowering effect, treated eyes ([2]; 1% solution (longest effect)): 5 h
- IOP, left eye (untreated, vehicle) ([2]; 1% solution applied to contralateral right eye, n=8, time 0 hrs (control reading before instillation)): 12.0 mm
- Time of maximal mean decrease in IOP, untreated eye ([2]; 1% solution to contralateral eye): 4 h
- IOP, left eye (untreated, vehicle) ([2]; 1% solution to contralateral eye, time 1 hrs): 11.6 mm
- IOP, left eye (untreated, vehicle) ([2]; 1% solution to contralateral eye, time 2 hrs): 11.2 mm
- IOP, left eye (untreated, vehicle) ([2]; 1% solution to contralateral eye, time 3 hrs): 11.1 mm
- IOP, left eye (untreated, vehicle) ([2]; 1% solution to contralateral eye, time 4 hrs): 10.2 mm
- IOP, left eye (untreated, vehicle) ([2]; 1% solution to contralateral eye, time 5 hrs): 11.0 mm
- IOP, left eye (untreated, vehicle) ([2]; 1% solution to contralateral eye, time 6 hrs): 10.7 mm
- IOP, left eye (untreated, vehicle) ([2]; 1% solution to contralateral eye, time 7 hrs): 11.1 mm
- IOP, left eye (untreated, vehicle) ([2]; 1% solution to contralateral eye, time 8 hrs): 11.4 mm
- IOP, right eye (treated) ([2]; 1% solution, 50-μL drop topical, n=8, time 0 hrs (control reading before instillation)): 12.3 mm
- Maximal mean decrease in IOP, treated eye ([2]; 1% solution, 5 hours after application): 2.6±1.2 mm Hg
- IOP, right eye (treated) ([2]; 1% solution, time 1 hrs): 12.0 mm
- IOP, right eye (treated) ([2]; 1% solution, time 2 hrs): 11.2 mm
- IOP, right eye (treated) ([2]; 1% solution, time 3 hrs): 10.8 mm
- IOP, right eye (treated) ([2]; 1% solution, time 4 hrs): 10.5 mm
- IOP, right eye (treated) ([2]; 1% solution, time 5 hrs): 10.1 mm
- IOP, right eye (treated) ([2]; 1% solution, time 6 hrs): 11.1 mm
- IOP, right eye (treated) ([2]; 1% solution, time 7 hrs): 11.5 mm
- IOP, right eye (treated) ([2]; 1% solution, time 8 hrs): 11.6 mm
- Time of maximal mean decrease in IOP, treated eye ([2]; 2% solution): 3 h
- IOP, left eye (untreated, vehicle) ([2]; 2% solution applied to contralateral right eye, n=4, time 0 hrs (control reading before instillation)): 11.2 mm
- Time of maximal mean decrease in IOP, untreated eye ([2]; 2% solution to contralateral eye): 3 h
- IOP, left eye (untreated, vehicle) ([2]; 2% solution to contralateral eye, time 1 hrs): 11.9 mm
- IOP, left eye (untreated, vehicle) ([2]; 2% solution to contralateral eye, time 2 hrs): 11.2 mm
- IOP, left eye (untreated, vehicle) ([2]; 2% solution to contralateral eye, time 3 hrs): 10.2 mm
- IOP, left eye (untreated, vehicle) ([2]; 2% solution to contralateral eye, time 4 hrs): 12.3 mm
- IOP, left eye (untreated, vehicle) ([2]; 2% solution to contralateral eye, time 5 hrs): 11.5 mm
- IOP, left eye (untreated, vehicle) ([2]; 2% solution to contralateral eye, time 6 hrs): 11.2 mm
- IOP, left eye (untreated, vehicle) ([2]; 2% solution to contralateral eye, time 7 hrs): 11.0 mm
- IOP, left eye (untreated, vehicle) ([2]; 2% solution to contralateral eye, time 8 hrs): 13.0 mm
- IOP, right eye (treated) ([2]; 2% solution, 50-μL drop topical, n=4, time 0 hrs (control reading before instillation)): 11.5 mm
- Maximal mean decrease in IOP, treated eye ([2]; 2% solution, 3 hours after application): 2.2±0.8 mm Hg
- IOP, right eye (treated) ([2]; 2% solution, time 1 hrs): 11.5 mm
- IOP, right eye (treated) ([2]; 2% solution, time 2 hrs): 11.0 mm
- IOP, right eye (treated) ([2]; 2% solution, time 3 hrs): 9.2 mm
- IOP, right eye (treated) ([2]; 2% solution, time 4 hrs): 10.8 mm
- IOP, right eye (treated) ([2]; 2% solution, time 5 hrs): 11.5 mm
- IOP, right eye (treated) ([2]; 2% solution, time 6 hrs): 11.1 mm
- IOP, right eye (treated) ([2]; 2% solution, time 7 hrs): 10.8 mm
- IOP, right eye (treated) ([2]; 2% solution, time 8 hrs): 12.0 mm
- Time of maximal mean decrease in IOP, treated eye ([2]; 5% solution): 1 h
- IOP, left eye (untreated, vehicle) ([2]; 5% solution applied to contralateral right eye, n=6, time 0 hrs (control reading before instillation)): 13.4 mm
- Time of maximal mean decrease in IOP, untreated eye ([2]; 5% solution to contralateral eye): 1 h
- IOP, left eye (untreated, vehicle) ([2]; 5% solution to contralateral eye, time 1 hrs): 10.7 mm
- IOP, left eye (untreated, vehicle) ([2]; 5% solution to contralateral eye, time 2 hrs): 11.5 mm
- IOP, left eye (untreated, vehicle) ([2]; 5% solution to contralateral eye, time 3 hrs): 11.3 mm
- IOP, left eye (untreated, vehicle) ([2]; 5% solution to contralateral eye, time 4 hrs): 11.9 mm
- IOP, left eye (untreated, vehicle) ([2]; 5% solution to contralateral eye, time 5 hrs): 13.2 mm
- IOP, left eye (untreated, vehicle) ([2]; 5% solution to contralateral eye, time 6 hrs): 12.5 mm
- IOP, left eye (untreated, vehicle) ([2]; 5% solution to contralateral eye, time 7 hrs): 13.3 mm
- IOP, left eye (untreated, vehicle) ([2]; 5% solution to contralateral eye, time 8 hrs): 13.0 mm
- Significance of IOP decrease in untreated eyes ([2]; 5% solution to contralateral eye, P<0.05, Mann-Whitney U-test): significant
- IOP, right eye (treated) ([2]; 5% solution, 50-μL drop topical, n=6, time 0 hrs (control reading before instillation)): 13.7 mm
- Maximal mean decrease in IOP, treated eye ([2]; 5% solution, 1 hour after application): 3.5±1.2 mm Hg
- IOP, right eye (treated) ([2]; 5% solution, time 1 hrs): 10.0 mm
- IOP, right eye (treated) ([2]; 5% solution, time 2 hrs): 11.1 mm
- IOP, right eye (treated) ([2]; 5% solution, time 3 hrs): 10.8 mm
- IOP, right eye (treated) ([2]; 5% solution, time 4 hrs): 10.5 mm
- IOP, right eye (treated) ([2]; 5% solution, time 5 hrs): 12.9 mm
- IOP, right eye (treated) ([2]; 5% solution, time 6 hrs): 12.5 mm
- IOP, right eye (treated) ([2]; 5% solution, time 7 hrs): 14.0 mm
- IOP, right eye (treated) ([2]; 5% solution, time 8 hrs): 11.8 mm
- IOP effect in the treated eye (in words) ([2]; topical 1%, 2%, 5% solutions): lowers the IOP significantiy
- Local toxicity (slit-lamp: redness, discharge, corneal epithelium, flare) [3]: No signs of rivastigmine-related local toxicity
